In ChEMBL document CHEMBL3991601, “The target landscape of clinical kinase drugs” (Science, 2017):
The source made the active and inactive calls.

What was measured:
[1] = molecular target: T1, ATP-dependent RNA helicase DDX1 (Homo sapiens, UniProt Q92499)
T1 sequence (Q92499 whole entry): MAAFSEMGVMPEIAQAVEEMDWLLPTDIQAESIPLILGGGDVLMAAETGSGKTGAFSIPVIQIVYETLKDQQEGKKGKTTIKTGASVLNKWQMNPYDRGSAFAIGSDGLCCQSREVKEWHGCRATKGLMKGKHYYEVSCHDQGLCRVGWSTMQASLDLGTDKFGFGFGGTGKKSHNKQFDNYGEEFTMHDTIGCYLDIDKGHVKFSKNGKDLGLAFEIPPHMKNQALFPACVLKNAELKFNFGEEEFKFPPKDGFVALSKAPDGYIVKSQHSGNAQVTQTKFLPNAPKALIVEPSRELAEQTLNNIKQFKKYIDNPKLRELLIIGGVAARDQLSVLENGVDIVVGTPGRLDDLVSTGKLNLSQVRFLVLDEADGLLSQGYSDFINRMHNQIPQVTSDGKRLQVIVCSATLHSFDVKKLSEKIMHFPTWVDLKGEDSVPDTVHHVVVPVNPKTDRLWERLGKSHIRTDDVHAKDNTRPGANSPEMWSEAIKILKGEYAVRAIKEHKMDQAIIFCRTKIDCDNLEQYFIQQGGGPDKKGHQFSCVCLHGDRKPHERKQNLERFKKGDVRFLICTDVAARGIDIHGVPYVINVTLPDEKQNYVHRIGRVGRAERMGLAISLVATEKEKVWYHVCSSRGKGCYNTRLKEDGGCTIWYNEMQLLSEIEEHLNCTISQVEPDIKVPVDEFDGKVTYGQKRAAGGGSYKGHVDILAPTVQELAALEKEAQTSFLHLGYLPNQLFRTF

[2] = molecular target: Guanine nucleotide-binding protein G(i) subunit alpha-2 (Homo sapiens, UniProt P04899)
[3] = molecular target: Fibroblast growth factor receptor 1 (Homo sapiens, UniProt P11362)
Ephrin type-A receptor 5 = Ephrin type-A receptor 5 (Homo sapiens, UniProt P54756)
[4] = molecular target: T2, Cyclin-G-associated kinase (Homo sapiens, UniProt O14976)
T2 sequence (O14976 whole entry): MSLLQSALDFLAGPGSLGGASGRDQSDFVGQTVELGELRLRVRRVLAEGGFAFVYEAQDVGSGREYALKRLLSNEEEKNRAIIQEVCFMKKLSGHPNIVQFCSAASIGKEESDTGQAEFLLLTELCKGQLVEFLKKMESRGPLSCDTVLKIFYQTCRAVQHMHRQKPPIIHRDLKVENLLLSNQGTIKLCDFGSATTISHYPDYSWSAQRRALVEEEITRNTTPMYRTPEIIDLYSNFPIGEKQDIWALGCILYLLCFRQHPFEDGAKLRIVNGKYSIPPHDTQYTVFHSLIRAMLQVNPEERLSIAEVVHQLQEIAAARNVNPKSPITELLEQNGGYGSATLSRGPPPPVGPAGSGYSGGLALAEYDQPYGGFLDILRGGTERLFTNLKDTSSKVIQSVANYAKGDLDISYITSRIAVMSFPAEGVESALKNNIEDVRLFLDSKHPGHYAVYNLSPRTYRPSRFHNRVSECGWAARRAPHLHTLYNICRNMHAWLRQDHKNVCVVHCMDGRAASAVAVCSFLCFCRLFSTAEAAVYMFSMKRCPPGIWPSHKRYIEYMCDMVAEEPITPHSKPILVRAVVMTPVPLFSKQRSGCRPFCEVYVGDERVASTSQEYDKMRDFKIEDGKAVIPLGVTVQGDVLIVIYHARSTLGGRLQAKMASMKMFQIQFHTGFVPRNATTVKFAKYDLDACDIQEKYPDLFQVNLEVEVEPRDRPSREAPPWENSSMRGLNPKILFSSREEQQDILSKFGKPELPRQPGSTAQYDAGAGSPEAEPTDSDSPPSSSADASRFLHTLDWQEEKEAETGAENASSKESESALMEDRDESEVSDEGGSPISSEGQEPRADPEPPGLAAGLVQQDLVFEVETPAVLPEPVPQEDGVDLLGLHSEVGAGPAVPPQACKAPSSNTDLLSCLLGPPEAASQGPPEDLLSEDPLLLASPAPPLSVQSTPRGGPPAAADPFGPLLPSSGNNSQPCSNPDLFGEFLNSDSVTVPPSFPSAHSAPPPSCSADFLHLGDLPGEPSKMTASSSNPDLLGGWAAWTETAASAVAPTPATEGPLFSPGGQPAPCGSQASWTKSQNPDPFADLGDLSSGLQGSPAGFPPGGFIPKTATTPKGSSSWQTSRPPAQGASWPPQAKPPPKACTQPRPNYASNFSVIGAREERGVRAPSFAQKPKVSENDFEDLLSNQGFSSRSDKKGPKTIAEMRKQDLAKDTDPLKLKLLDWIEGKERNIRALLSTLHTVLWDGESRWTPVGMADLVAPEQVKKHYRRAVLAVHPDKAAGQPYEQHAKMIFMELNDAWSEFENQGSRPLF

GTP-binding protein 4 = GTP-binding protein 4 (Homo sapiens, UniProt Q9BZE4)
[5] = molecular target: Ribosomal protein S6 kinase alpha-1 (Homo sapiens, UniProt Q15418)
ADP/ATP translocase 2 = molecular target: T3, ADP/ATP translocase 2 (Homo sapiens, UniProt P05141)
T3 sequence (P05141 whole entry): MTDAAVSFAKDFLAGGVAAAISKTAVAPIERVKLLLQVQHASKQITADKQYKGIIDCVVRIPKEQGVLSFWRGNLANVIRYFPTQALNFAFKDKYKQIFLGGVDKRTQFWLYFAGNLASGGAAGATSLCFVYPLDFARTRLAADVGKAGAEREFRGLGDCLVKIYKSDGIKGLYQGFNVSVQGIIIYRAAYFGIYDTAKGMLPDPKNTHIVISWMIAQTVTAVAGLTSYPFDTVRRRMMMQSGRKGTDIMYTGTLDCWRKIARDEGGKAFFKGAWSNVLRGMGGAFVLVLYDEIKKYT

[6] = molecular target: Structural maintenance of chromosomes protein 2 (Homo sapiens, UniProt O95347)
[7] = molecular target: Serine/threonine-protein kinase PAK 2 (Homo sapiens, UniProt Q13177)
Also: in the data inactive means no Kd found up to 30 µM.

Structural maintenance of chromosomes protein 2, sequence (O95347 whole entry): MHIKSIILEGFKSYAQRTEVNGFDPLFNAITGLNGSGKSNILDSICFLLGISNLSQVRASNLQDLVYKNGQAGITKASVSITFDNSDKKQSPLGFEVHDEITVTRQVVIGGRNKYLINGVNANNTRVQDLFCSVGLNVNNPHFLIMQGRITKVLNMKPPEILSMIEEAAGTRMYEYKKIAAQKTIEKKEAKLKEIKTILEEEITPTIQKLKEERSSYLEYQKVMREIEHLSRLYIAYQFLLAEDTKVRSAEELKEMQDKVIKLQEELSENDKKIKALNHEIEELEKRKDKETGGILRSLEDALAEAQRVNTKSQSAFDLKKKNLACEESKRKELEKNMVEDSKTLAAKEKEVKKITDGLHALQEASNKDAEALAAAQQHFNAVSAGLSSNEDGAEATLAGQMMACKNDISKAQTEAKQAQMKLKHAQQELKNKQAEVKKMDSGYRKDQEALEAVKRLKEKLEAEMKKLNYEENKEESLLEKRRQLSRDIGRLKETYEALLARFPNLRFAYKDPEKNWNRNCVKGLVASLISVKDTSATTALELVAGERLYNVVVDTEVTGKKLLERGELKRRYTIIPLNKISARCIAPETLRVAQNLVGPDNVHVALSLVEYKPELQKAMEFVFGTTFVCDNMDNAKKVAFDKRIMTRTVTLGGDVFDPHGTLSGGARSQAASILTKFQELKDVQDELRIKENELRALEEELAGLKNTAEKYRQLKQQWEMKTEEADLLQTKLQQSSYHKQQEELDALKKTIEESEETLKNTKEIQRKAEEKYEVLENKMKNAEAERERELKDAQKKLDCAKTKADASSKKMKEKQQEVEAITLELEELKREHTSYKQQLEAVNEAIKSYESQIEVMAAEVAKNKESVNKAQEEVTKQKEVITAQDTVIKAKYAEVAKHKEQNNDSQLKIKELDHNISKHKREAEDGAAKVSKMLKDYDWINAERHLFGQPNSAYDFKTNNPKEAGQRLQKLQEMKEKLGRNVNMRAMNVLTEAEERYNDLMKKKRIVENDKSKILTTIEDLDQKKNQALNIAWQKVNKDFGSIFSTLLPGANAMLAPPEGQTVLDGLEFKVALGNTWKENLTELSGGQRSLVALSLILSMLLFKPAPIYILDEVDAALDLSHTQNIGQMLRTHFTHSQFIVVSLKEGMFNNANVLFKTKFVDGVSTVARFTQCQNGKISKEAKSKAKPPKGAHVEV
Ribosomal protein S6 kinase alpha-1, sequence (Q15418 whole entry): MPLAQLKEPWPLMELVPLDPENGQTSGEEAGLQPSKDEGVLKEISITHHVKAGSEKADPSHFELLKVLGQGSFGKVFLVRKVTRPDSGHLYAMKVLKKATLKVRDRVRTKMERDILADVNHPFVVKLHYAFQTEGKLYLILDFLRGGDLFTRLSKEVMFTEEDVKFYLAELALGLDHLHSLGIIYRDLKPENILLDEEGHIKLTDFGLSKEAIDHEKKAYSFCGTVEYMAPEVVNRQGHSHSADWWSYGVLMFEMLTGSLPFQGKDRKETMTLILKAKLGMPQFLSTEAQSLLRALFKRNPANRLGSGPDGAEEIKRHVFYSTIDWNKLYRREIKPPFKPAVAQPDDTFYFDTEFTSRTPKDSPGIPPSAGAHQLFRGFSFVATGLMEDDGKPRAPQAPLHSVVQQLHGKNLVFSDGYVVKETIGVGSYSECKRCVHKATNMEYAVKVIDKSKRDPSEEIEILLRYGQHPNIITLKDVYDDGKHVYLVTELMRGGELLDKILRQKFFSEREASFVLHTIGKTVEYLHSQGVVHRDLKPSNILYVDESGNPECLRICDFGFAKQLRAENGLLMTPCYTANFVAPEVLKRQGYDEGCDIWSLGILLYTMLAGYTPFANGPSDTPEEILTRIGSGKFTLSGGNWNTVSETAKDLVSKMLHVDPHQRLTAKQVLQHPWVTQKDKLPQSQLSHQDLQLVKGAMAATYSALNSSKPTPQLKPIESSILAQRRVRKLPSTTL
Fibroblast growth factor receptor 1, sequence (P11362 whole entry): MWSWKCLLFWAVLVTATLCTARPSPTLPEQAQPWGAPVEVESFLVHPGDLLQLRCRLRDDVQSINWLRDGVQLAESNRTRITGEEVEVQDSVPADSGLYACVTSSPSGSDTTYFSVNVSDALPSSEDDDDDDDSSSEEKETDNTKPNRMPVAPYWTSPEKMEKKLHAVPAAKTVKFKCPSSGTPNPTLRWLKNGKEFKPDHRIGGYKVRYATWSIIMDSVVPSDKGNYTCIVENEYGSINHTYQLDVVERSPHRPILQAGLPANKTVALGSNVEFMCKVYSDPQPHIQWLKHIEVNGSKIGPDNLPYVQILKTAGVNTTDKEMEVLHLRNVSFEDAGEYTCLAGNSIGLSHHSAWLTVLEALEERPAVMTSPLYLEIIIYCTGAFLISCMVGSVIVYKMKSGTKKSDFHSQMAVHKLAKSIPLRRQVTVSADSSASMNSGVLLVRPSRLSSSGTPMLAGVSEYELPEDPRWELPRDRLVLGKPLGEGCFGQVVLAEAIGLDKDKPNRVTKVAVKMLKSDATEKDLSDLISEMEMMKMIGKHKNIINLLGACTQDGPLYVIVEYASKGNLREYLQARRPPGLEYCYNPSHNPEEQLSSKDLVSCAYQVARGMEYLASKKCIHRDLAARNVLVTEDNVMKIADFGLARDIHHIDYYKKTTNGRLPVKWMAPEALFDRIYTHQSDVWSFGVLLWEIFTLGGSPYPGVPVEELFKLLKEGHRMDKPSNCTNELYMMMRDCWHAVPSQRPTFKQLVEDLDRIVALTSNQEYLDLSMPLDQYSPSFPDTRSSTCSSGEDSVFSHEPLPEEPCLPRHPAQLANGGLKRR
Serine/threonine-protein kinase PAK 2, sequence (Q13177 whole entry): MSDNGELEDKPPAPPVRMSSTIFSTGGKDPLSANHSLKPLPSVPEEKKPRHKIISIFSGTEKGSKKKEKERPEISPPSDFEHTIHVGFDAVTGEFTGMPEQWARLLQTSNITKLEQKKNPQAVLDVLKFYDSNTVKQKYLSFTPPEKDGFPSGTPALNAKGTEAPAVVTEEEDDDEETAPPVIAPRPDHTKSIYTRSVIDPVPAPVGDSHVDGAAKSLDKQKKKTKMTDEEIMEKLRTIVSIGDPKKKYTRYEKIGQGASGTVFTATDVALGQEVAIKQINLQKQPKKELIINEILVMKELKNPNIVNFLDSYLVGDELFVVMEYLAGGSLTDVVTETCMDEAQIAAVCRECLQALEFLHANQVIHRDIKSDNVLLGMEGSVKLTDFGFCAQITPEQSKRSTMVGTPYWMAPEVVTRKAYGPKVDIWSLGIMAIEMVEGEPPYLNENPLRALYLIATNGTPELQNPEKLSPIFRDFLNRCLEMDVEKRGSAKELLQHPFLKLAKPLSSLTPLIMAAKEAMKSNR
Ephrin type-A receptor 5, sequence (P54756 whole entry): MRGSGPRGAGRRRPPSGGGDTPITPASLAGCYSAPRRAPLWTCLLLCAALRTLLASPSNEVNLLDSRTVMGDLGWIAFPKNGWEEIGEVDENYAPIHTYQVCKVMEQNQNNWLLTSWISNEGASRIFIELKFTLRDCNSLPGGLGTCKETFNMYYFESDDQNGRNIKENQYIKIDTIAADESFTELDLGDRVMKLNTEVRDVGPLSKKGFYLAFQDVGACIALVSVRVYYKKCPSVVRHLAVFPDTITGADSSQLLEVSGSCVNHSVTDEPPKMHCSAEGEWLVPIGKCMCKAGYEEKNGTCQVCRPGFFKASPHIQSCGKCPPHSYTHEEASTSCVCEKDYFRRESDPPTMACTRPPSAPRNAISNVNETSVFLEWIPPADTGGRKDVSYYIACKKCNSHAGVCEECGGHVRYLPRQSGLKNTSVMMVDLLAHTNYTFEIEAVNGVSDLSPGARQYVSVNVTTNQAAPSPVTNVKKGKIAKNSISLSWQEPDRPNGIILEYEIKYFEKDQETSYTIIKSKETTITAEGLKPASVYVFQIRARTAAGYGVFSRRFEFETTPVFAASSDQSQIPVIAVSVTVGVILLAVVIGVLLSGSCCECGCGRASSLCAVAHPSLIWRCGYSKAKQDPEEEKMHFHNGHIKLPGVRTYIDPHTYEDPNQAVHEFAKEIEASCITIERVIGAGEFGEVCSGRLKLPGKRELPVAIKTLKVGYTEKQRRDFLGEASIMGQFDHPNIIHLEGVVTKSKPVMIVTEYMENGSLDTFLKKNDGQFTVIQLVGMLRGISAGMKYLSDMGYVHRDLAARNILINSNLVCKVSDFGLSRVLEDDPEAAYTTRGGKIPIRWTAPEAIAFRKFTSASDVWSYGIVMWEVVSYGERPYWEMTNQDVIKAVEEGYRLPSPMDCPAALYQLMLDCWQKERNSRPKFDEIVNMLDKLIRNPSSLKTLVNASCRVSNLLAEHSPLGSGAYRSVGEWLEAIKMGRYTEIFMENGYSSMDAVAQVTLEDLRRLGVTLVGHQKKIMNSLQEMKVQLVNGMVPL
Guanine nucleotide-binding protein G(i) subunit alpha-2, sequence (P04899 whole entry): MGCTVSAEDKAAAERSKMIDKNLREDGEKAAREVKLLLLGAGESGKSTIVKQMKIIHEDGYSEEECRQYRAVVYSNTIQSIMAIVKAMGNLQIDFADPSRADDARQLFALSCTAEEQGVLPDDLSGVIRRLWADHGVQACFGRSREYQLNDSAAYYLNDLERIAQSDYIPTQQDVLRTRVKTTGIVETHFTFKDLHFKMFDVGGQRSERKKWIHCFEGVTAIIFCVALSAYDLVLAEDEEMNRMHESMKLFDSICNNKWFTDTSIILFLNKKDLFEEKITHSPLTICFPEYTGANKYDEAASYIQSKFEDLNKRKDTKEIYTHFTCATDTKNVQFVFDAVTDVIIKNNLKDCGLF

Row | Kd [1] | Kd [2] | Kd [3] | Kd (Ephrin type-A receptor 5) | Kd [4] | Kd (GTP-binding protein 4) | Kd [5] | Kd (ADP/ATP translocase 2) | Kd [6] | Kd [7] | SMILES
1 | > 30 µM (inactive) | > 30 µM (inactive) | > 30 µM (inactive) | > 30 µM (inactive) | > 30 µM (inactive) | > 30 µM (inactive) | > 30 µM (inactive) | > 30 µM (inactive) | > 30 µM (inactive) | – | O=C(Nc1ccc(OC(F)(F)F)cc1)c1sccc1NCc1ccnc2ccccc12 [OSI-930]
2 | > 30 µM (inactive) | – | > 30 µM (inactive) | > 30 µM (inactive) | > 30 µM (inactive) | > 30 µM (inactive) | > 30 µM (inactive) | > 30 µM (inactive) | > 30 µM (inactive) | > 30 µM (inactive) | O=C(NOC[C@H](O)CO)c1ccc(F)c(F)c1Nc1ccc(I)cc1F [MIRDAMETINIB]
3 | > 30 µM (inactive) | – | – | – | – | > 30 µM (inactive) | – | > 30 µM (inactive) | > 30 µM (inactive) | – | COc1cc2c(Oc3ccc4[nH]c(C)cc4c3F)ncnc2cc1OCCCN1CCCC1 [CEDIRANIB]
4 | > 30 µM (inactive) | – | > 30 µM (inactive) | > 30 µM (inactive) | > 30 µM (inactive) | > 30 µM (inactive) | > 30 µM (inactive) | > 30 µM (inactive) | > 30 µM (inactive) | > 30 µM (inactive) | CNC(=O)c1cc(COc2nnc(Nc3ccc(Cl)cc3)c3ccoc23)ccn1 [TELATINIB]
5 | > 30 µM (inactive) | – | > 30 µM (inactive) | > 30 µM (inactive) | > 30 µM (inactive) | > 30 µM (inactive) | > 30 µM (inactive) | > 30 µM (inactive) | > 30 µM (inactive) | > 30 µM (inactive) | COc1ccc(-c2ccc3ncc4c(c3c2)n(-c2ccc(N3CCNCC3)c(C(F)(F)F)c2)c(=O)n4C)cn1 [BGT-226 FREE BASE]
6 | > 30 µM (inactive) | – | – | – | – | > 30 µM (inactive) | – | > 30 µM (inactive) | > 30 µM (inactive) | – | COc1cc2c(N3CCN(C(=O)Nc4ccc(OC(C)C)cc4)CC3)ncnc2cc1OCCCN1CCCCC1 [TANDUTINIB]
7 | > 30 µM (inactive) | > 30 µM (inactive) | > 30 µM (inactive) | > 30 µM (inactive) | > 30 µM (inactive) | > 30 µM (inactive) | > 30 µM (inactive) | > 30 µM (inactive) | > 30 µM (inactive) | – | FC(F)(F)c1ccc(CNc2ccc(Cc3c[nH]c4ncc(Cl)cc34)cn2)cn1 [PEXIDARTINIB]
8 | – | – | > 30 µM (inactive) | > 30 µM (inactive) | 5.16 µM (active) | – | 5.92 µM (active) | > 30 µM (inactive) | > 30 µM (inactive) | > 30 µM (inactive) | O=C(O)c1ccc2c(c1)nc(Nc1cccc(Cl)c1)c1ccncc12 [SILMITASERTIB]
9 | > 30 µM (inactive) | > 30 µM (inactive) | – | – | – | > 30 µM (inactive) | – | > 30 µM (inactive) | > 30 µM (inactive) | – | CC1(C)CNc2cc(NC(=O)c3cccnc3NCc3ccncc3)ccc21 [MOTESANIB]
10 | > 30 µM (inactive) | > 30 µM (inactive) | – | – | – | > 30 µM (inactive) | – | > 30 µM (inactive) | 0.209 µM | – | Cn1cnc2c(F)c(Nc3ccc(Br)cc3Cl)c(C(=O)NOCCO)cc21 [SELUMETINIB]
11 | > 30 µM (inactive) | > 30 µM (inactive) | > 30 µM (inactive) | > 30 µM (inactive) | 0.168 µM (active) | > 30 µM (inactive) | > 30 µM (inactive) | > 30 µM (inactive) | > 30 µM (inactive) | – | COc1cc2ncnc(Nc3ccc(F)c(Cl)c3)c2cc1NC(=O)/C=C/CN1CCCCC1 [DACOMITINIB ANHYDROUS]
12 | > 30 µM (inactive) | > 30 µM (inactive) | – | – | – | > 30 µM (inactive) | – | > 30 µM (inactive) | > 30 µM (inactive) | – | C[C@@]1(C(=O)Nc2ccc(F)nc2)CCCN1c1nc(Nc2cc(C3CC3)n[nH]2)c2cccn2n1 [BMS-754807]
13 | > 30 µM (inactive) | > 30 µM (inactive) | – | – | – | > 30 µM (inactive) | – | > 30 µM (inactive) | > 30 µM (inactive) | – | CN(C)C/C=C/C(=O)Nc1cc2c(Nc3ccc(F)c(Cl)c3)ncnc2cc1O[C@H]1CCOC1 [AFATINIB]
14 | > 30 µM (inactive) | > 30 µM (inactive) | > 30 µM (inactive) | > 30 µM (inactive) | > 30 µM (inactive) | > 30 µM (inactive) | > 30 µM (inactive) | > 30 µM (inactive) | > 30 µM (inactive) | – | NC(=O)c1ccc(N(C(N)=O)c2c(F)cccc2F)nc1-c1ccc(F)cc1F [VX-702]

Row | SMILES | Kd [1] | Kd [2] | Kd [3] | Kd (Ephrin type-A receptor 5) | Kd [4] | Kd (GTP-binding protein 4) | Kd [5] | Kd (ADP/ATP translocase 2) | Kd [6] | Kd [7]
15 | Cc1c(NC(=O)OC[C@@H]2COCCN2)cn2ncnc(Nc3ccc4c(cnn4Cc4cccc(F)c4)c3)c12 [AC-480] | > 30 µM (inactive) | > 30 µM (inactive) | > 30 µM (inactive) | > 30 µM (inactive) | > 30 µM (inactive) | > 30 µM (inactive) | > 30 µM (inactive) | > 30 µM (inactive) | > 30 µM (inactive) | –
16 | C[C@]1(O)C[C@@H](c2nc(-c3ccc4ccc(-c5ccccc5)nc4c3)c3c(N)nccn32)C1 [LINSITINIB] | > 30 µM (inactive) | > 30 µM (inactive) | – | > 30 µM (inactive) | > 30 µM (inactive) | > 30 µM (inactive) | > 30 µM (inactive) | > 30 µM (inactive) | > 30 µM (inactive) | –
17 | Cc1c(Cn2c(C)nc3c(C(=O)O)cc(N4CCOCC4)cc32)cccc1C(F)(F)F [GSK-2636771] | > 30 µM (inactive) | – | > 30 µM (inactive) | > 30 µM (inactive) | > 30 µM (inactive) | > 30 µM (inactive) | > 30 µM (inactive) | > 30 µM (inactive) | > 30 µM (inactive) | –
18 | CCc1nc(C(N)=O)c(Nc2ccc(N3CCC(N4CCN(C)CC4)CC3)c(OC)c2)nc1NC1CCOCC1 [GILTERITINIB] | – | > 30 µM (inactive) | > 30 µM (inactive) | > 30 µM (inactive) | 0.009 µM (active) | > 30 µM (inactive) | 3.44 µM (active) | 0.451 µM (active) | > 30 µM (inactive) | –
